Active and inactive are the calls of the source. The rule behind the calls is not given here.
Key:
Aminopeptidase N [1] = target: T1, Aminopeptidase N (Sus scrofa, UniProt P15145); assay: Inhibition of APN in porcine kidney microsome assessed as inhibition of L-Leu-p-nitroanilide substrate hydrolysis incubated for 5 mins before substrate addition by UV-Vis spectrophotometric analysis; assay type: microsomes
T1 sequence (P15145 whole entry): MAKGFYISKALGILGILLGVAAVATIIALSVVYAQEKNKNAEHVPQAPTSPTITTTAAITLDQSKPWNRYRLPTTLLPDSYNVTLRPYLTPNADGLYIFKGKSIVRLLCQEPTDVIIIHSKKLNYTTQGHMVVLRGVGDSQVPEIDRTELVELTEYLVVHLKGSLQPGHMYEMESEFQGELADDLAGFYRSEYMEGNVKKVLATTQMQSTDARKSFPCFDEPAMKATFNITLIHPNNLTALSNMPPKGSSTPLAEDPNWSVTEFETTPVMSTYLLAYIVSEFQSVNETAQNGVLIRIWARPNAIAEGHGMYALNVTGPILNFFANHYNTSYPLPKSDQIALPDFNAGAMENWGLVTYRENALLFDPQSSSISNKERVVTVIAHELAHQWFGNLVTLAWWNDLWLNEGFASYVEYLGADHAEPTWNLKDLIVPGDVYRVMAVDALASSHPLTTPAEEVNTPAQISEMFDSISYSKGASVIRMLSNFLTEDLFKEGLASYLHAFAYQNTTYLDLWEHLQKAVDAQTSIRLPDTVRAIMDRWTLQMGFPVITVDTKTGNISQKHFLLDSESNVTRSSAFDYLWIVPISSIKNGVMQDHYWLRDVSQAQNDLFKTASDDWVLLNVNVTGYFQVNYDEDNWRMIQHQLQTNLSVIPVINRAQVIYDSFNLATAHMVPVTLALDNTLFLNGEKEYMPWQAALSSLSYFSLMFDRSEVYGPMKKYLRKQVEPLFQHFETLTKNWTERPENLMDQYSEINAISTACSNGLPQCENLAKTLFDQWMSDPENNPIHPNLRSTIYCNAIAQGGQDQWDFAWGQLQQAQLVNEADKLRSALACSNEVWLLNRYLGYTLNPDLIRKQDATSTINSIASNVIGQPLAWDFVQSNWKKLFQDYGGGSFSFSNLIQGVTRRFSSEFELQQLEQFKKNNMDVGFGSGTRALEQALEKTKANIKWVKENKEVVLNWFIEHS

[2] = Cytotoxicity against human ES2 cells assessed as cell growth inhibition rate at 50 ug/ml after 24 hrs by MTT assay; assay type: cell-based; details: read-out: GI
[3] = target: 72 kDa type IV collagenase (Homo sapiens, UniProt P08253); assay: Inhibition of recombinant MMP-2 using succinylated gelatin as substrate incubated for 10 mins before addition of substrate measured after 60 mins by UV-Vis spectrophotometric analysis
[4] = Cytotoxicity against human ES2 cells assessed as cell growth inhibition rate at 5 ug/ml after 24 hrs by MTT assay; assay type: cell-based; details: read-out: GI
Aminopeptidase N [5] = target: Aminopeptidase N (Homo sapiens, UniProt P15144); assay: Inhibition of APN in human ES2 cell surface assessed as inhibition of L-Leu-p-nitroanilide substrate hydrolysis incubated for 5 mins before substrate addition by UV-Vis spectrophotometric analysis
B16-BL6 [6] = assay: Antimetastatic activity against mouse B16-BL6 cells xenografted in C57BL/6 mouse assessed as decrease in number of pulmonary metastatic colonies at 100 mg/kg/day, ip administered for 13 days measured on day 14; assay type: functional, organism-based
[7] = Cytotoxicity against mouse B16-BL6 cells assessed as cell growth inhibition after 24 hrs by MTT assay; assay type: cell-based
B16-BL6 [8] = assay: Antiangiogenic activity against mouse B16-BL6 cells xenografted in C57BL/6 mouse assessed as decrease in number of vessels oriented towards the tumor mass at 100 mg/kg/day, ip administered for 4 days measured on day 5 by dissecting microscopic analysis; assay type: functional, organism-based
Aminopeptidase N [9] = target: T2, Aminopeptidase N (Mus musculus, UniProt P97449); assay: Inhibition of APN in mouse B16-BL6 cell surface assessed as inhibition of L-Leu-p-nitroanilide substrate hydrolysis incubated for 5 mins before substrate addition by UV-Vis spectrophotometric analysis
T2 sequence (P97449 whole entry): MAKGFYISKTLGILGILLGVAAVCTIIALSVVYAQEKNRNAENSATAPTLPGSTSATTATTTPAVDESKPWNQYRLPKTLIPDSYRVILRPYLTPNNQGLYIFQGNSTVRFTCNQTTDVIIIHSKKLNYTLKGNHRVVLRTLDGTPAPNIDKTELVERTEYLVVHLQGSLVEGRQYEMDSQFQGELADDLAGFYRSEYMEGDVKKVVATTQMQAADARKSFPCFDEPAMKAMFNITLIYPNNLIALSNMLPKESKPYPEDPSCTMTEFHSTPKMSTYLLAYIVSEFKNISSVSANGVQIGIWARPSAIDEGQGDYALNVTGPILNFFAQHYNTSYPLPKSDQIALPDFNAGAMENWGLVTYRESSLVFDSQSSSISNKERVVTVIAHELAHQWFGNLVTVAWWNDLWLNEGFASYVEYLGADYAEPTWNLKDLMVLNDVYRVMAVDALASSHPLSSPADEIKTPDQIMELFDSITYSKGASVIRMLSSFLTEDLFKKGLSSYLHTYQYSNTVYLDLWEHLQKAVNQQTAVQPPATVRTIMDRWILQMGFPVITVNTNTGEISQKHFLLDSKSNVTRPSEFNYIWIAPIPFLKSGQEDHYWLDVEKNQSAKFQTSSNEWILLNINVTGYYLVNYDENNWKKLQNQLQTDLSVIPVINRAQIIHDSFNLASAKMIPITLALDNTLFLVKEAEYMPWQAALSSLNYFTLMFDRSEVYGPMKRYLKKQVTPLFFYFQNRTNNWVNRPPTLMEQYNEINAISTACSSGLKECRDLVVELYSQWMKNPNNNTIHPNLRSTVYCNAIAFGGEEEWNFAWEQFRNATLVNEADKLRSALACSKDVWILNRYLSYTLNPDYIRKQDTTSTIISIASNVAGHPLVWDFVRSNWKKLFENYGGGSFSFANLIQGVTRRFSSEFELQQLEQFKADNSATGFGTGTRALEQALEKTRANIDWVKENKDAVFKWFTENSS

HUVEC = assay: Antiangiogenesis activity against HUVEC assessed as decrease in capillary tubular structure formation at 25 ug/ml after 8 hrs by microscopic analysis; assay type: functional, cell-based; details: Homo sapiens
ES2 [10] = assay: Inhibition of human ES2 cell invasion after 8 hrs by Matrigel invasion assay; assay type: functional, cell-based
ES2 [11] = assay: Inhibition of human ES2 cell migration at 150 uM by crystal violet staining based microscopic analysis; assay type: functional
ES2 [12] = assay: Inhibition of human ES2 cell invasion at 15 to 150 uM after 8 hrs by Matrigel invasion assay; assay type: functional, cell-based
Aminopeptidase N [13] = target: T2, Aminopeptidase N; assay: Inhibition of mouse APN

Chain of 72 kDa type IV collagenase (P08253 whole entry): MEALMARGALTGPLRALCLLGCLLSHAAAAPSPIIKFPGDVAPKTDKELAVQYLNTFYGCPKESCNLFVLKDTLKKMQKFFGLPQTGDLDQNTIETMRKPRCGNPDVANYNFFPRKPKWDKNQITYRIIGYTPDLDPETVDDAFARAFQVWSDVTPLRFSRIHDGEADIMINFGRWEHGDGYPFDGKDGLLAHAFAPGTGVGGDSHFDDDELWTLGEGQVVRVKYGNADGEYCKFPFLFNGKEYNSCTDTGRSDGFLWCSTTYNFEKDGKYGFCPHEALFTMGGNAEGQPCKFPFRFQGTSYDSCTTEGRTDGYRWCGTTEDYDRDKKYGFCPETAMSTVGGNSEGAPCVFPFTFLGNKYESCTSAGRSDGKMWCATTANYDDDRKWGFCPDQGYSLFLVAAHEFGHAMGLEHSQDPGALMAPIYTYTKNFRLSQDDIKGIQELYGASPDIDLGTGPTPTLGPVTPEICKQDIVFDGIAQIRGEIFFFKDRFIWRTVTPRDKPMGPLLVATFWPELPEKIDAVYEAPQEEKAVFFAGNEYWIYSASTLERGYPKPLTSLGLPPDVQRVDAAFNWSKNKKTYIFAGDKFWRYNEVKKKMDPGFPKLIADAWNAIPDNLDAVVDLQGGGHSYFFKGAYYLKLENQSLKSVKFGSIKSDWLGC
Chain of Aminopeptidase N (Homo sapiens, UniProt P15144) (P15144 whole entry): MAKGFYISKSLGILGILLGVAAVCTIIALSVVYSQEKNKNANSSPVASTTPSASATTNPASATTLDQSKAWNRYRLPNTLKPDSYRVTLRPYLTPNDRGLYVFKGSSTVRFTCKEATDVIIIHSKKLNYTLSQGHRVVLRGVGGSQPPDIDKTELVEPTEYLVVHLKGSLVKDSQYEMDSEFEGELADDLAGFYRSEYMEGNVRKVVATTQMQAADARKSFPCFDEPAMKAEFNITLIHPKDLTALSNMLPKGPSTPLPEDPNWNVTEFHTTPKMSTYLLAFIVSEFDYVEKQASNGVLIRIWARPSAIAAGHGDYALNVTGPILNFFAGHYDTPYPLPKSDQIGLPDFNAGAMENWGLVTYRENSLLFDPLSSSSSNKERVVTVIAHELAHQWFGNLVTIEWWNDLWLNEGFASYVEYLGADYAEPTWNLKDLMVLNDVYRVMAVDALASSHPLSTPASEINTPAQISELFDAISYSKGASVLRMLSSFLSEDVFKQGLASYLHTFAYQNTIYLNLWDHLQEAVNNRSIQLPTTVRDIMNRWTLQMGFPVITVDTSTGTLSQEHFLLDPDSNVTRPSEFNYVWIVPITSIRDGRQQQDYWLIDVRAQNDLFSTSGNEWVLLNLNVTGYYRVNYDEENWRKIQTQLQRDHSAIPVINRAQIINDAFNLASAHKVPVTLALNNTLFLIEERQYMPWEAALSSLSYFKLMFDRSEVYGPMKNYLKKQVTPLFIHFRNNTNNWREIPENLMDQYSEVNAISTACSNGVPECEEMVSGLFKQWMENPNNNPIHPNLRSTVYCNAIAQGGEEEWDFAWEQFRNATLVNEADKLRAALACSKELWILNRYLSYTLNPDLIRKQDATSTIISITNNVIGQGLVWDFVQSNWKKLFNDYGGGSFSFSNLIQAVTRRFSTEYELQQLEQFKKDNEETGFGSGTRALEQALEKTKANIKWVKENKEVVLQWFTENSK

SMILES	IC50 (Aminopeptidase N [1])	inhibition at 24 h, 50 ug/ml [2]	IC50 [3]	inhibition at 24 h, 5 ug/ml [4]	IC50 (Aminopeptidase N [5])	also measured
CC(C)C[C@H](NC(=O)Nc1ccc(F)cc1)C(=O)NO	2500 nM	–	–	–	–	–
CC(C)C[C@H](NC(=O)NCc1ccc(F)cc1)C(=O)NO	730 nM	11.9%	> 1 mM	< 1%	910 nM	–
COc1ccc(CNC(=O)N[C@@H](CC(C)C)C(=O)NO)cc1	830 nM	< 1%	> 1 mM	< 1%	6900 nM	–
O=C(NCCCCc1ccccc1)N[C@@H](Cc1ccccc1)C(=O)NO	2800 nM	–	–	–	–	–
O=C(NCCc1ccccc1)N[C@H](C(=O)NO)c1ccccc1	1900 nM	–	–	–	–	–
CC(C)C[C@H](NC(=O)Nc1cccc2ccccc12)C(=O)NO	99 nM	3.63%	> 1 mM	< 1%	480 nM	Activity (B16-BL6 [6]): Active; GI50 at 24 h [7]: > 500 µM; Activity (B16-BL6 [8]): Active; IC50 (Aminopeptidase N [9]): 2.26 µM; Activity (HUVEC): Active; inhibition (ES2 [10]): Dose-dependent effect; inhibition (ES2 [11]): Active
CC(C)C[C@H](NC(=O)NCc1cccc2ccccc12)C(=O)NO	50 nM	6.67%	0.545 mM	< 1%	420 nM	Activity (B16-BL6 [6]): Active; GI50 at 24 h [7]: > 500 µM; Activity (B16-BL6 [8]): Active; IC50 (Aminopeptidase N [9]): 1.82 µM; Activity (HUVEC): Active; inhibition (ES2 [10]): Dose-dependent effect; inhibition (ES2 [11]): Active
CC(C)C[C@H](NC(=O)Nc1ccc(-c2ccccc2)cc1)C(=O)NO	2100 nM	–	–	–	–	–
Cc1ccc(CNC(=O)N[C@H](C(=O)NO)c2ccccc2)cc1	1640 nM	–	–	–	–	–
O=C(NCCCc1ccccc1)N[C@H](C(=O)NO)c1ccccc1	2200 nM	–	–	–	–	–
CC(C)C[C@H](NC(=O)[C@@H](O)[C@H](N)Cc1ccccc1)C(=O)O [UBENIMEX]	–	2.89%	0.276 mM	< 1%	–	GI50 at 24 h [7]: > 500 µM; Activity (B16-BL6 [8]): Active; IC50 (Aminopeptidase N [9]): 23.2 µM; Activity (HUVEC): Active; inhibition (ES2 [12]): Active; inhibition (ES2 [11]): Active; Ki (Aminopeptidase N [13]): 3.03 µM
CC(C)C[C@H](NC(=O)NCc1cccc(F)c1)C(=O)NO	690 nM	2.81%	> 1 mM	< 1%	3000 nM	–
CSCC[C@H](NC(=O)NCCCc1ccccc1)C(=O)NO	7000 nM	–	–	–	–	–
CC[C@H](C)[C@H](NC(=O)NCCCCc1ccccc1)C(=O)NO	> 10000 nM	–	–	–	–	–
O=C(Nc1ccc(F)cc1)N[C@H](C(=O)NO)c1ccccc1	9900 nM	–	–	–	–	–
CC(C)C[C@H](NC(=O)NCCCCc1ccccc1)C(=O)NO	2300 nM	–	–	–	–	–

SMILES	IC50 (Aminopeptidase N [1])	inhibition at 24 h, 50 ug/ml [2]	IC50 [3]	inhibition at 24 h, 5 ug/ml [4]	IC50 (Aminopeptidase N [5])	also measured
CC(C)C[C@H](NC(=O)NCc1ccco1)C(=O)NO	2300 nM	–	–	–	–	–
O=C(Nc1ccccc1)N[C@H](C(=O)NO)c1ccccc1	5900 nM	–	–	–	–	–
O=C(NCc1ccc(F)cc1)N[C@H](C(=O)NO)c1ccccc1	5000 nM	–	–	–	–	–
CC(C)C[C@H](NC(=O)OCCCc1ccccc1)C(=O)NO	> 10000 nM	–	–	–	–	–
COc1ccc(NC(=O)N[C@@H](CC(C)C)C(=O)NO)cc1	570 nM	6.85%	> 1 mM	< 1%	6400 nM	–
Cc1ccc(CNC(=O)N[C@@H](CC(C)C)C(=O)NO)cc1	410 nM	1.83%	> 1 mM	< 1%	1500 nM	–
COc1cccc(CNC(=O)N[C@@H](CC(C)C)C(=O)NO)c1	290 nM	< 1%	> 1 mM	< 1%	790 nM	Activity (B16-BL6 [6]): Active; GI50 at 24 h [7]: > 500 µM; Activity (B16-BL6 [8]): Active; IC50 (Aminopeptidase N [9]): 5.61 µM; Activity (HUVEC): Active; inhibition (ES2 [10]): Dose-dependent effect; inhibition (ES2 [11]): Active
O=C(NCc1ccccc1)N[C@H](C(=O)NO)c1ccccc1	980 nM	–	–	–	–	–
CC(C)C[C@H](NC(=O)Cc1ccccc1)C(=O)NO	> 10000 nM	–	–	–	–	–
CC(C)C[C@H](NC(=O)NCCCc1ccccc1)C(=O)NO	3400 nM	–	–	–	–	–
O=C(NCCCCc1ccccc1)N[C@H](C(=O)NO)c1ccccc1	5500 nM	–	–	–	–	–
Cc1ccc(NC(=O)N[C@@H](CC(C)C)C(=O)NO)cc1	330 nM	1.78%	0.573 mM	< 1%	940 nM	inhibition (ES2 [10]): Dose-dependent effect; inhibition (ES2 [11]): Active
CC(C)C[C@H](NC(=O)NCc1cccs1)C(=O)NO	660 nM	–	–	–	–	–
COc1ccccc1CNC(=O)N[C@@H](CC(C)C)C(=O)NO	570 nM	3.29%	> 1 mM	< 1%	1100 nM	–
CC(C)C[C@H](NC(=O)Nc1ccccc1)C(=O)NO	2700 nM	–	–	–	–	–
COc1ccc(CNC(=O)N[C@H](C(=O)NO)c2ccccc2)cc1	1030 nM	–	–	–	–	–
